# Data published in patent US7629470B2, “Formation of tetra-substituted enamides and stereoselective reduction thereof” (Merck & Co., Inc., priority 2004, dated 2009).
# Assay: Solubility of chiral amide in IPA
# Type: physicochemical
# Conditions: organic solvent or mixture; in IPA (isopropyl alcohol); grams of chiral amide per liter of solvent; concentration up to 45° C. under vacuum
# Method: After the hydrogenation was complete (Example 8), 64.9 g of solution was concentrated to 16.9 g up to 45° C. under vacuum. […] MTBE (348.2 g) was added, and the solution was washed with 250 mL of 10% NH4Cl solution. The organic solution was then washed an additional 3 times with water (248 mL for each wash). The residual organic solution was concentrated with MTBE (284.4 g) to azeotrope the water. The solution was concentrated to 53±5 g/kg. The final water concentration was 532 ppm. This solution was then seeded with chiral amide MTBE hemisolvate, 0.5 wt. %, and aged for 20 hours at 20-25° C. At this point, heptane was charge in three aliquots over specific periods of time. The first aliquot of heptane (54 mL), was charged in 9 hours. The second aliquot of heptane (90 mL) was charged in 6 hours. The third aliquot of heptane (294 mL) was charged in 3 hours. At the conclusion of the heptane charge, the solution was aged at 20-25° C. for 2 hours. The solution was filtered over a 5 micron fritted filter. A displacement wash was conducted using 164 mL of 5:1 n-heptane/MTBE, and the solids were dried at less than 45° C. under vacuum. The final water concentration was <0.5 wt. % (by KF). The final MTBE concentration was 11-12 wt. % (as a hemisolvate) and the final heptane concentration was <0.5 wt. % (both by GC). The chiral amide/MTBE hemisolvate was isolated in 90% yield, 99.3 LCAP.
compound,measurement,value
"C[C@H](NC(=O)C(C)(C)Oc1ccc(C(F)(F)F)cn1)[C@@H](Cc1ccc(Cl)cc1)c1cccc(C(N)=O)c1 [chiral amide, 3-{(1S,2S)-1-(4-chlorobenzyl)-2-[(2-methyl-2-{[5-(trifluoromethyl)pyridine-2-yl]oxy}propanoyl)amino]-propyl}benzamide]",solubility,> 1350 mg/mL
